{"source": "patent US20060275505A1", "about": "“Method and composition for increasing the alkalinity of the body” (priority 2005, published 2006)", "tested_on": "acid reflux", "experiment": "Example 13 case study, acid reflux", "format": "in vivo, human", "conditions": "patient history", "description": "A person had suffered from acid reflux for two years. The reflux was severe enough to wake them once or twice every night, and they slept in an inclined bed. […] The patient drank a small glass of water with Alka Vita each night.", "data": [{"smiles": "COc1ccc2[nH]c([S@@+]([O-])Cc3ncc(C)c(OC)c3C)nc2c1", "note": "[Nexium]", "values": [{"measurement": "relief of acid reflux by drugs tried before", "result": "no relief"}]}, {"smiles": "NC(N)=Nc1nc(CSCCC(N)=NS(N)(=O)=O)cs1", "note": "[Pepcid AC]", "values": [{"measurement": "relief of acid reflux by drugs tried before", "result": "no relief"}]}, {"smiles": "COc1ccc2[nH]c([S+]([O-])Cc3ncc(C)c(OC)c3C)nc2c1", "note": "(stereo not shown) [Prilosec]", "values": [{"measurement": "relief of acid reflux by drugs tried before", "result": "no relief"}]}, {"smiles": "COc1cc(N)c(Cl)cc1C(=O)NC1CCN(CCCOc2ccc(F)cc2)CC1OC", "note": "(stereo not shown) [Propulsid]", "values": [{"measurement": "relief of acid reflux by drugs tried before", "result": "no relief"}]}]}
